Measured values published in ChEMBL document CHEMBL1147639, “Quinolines as extremely potent and selective PDE5 inhibitors as potential agents for treatment of erectile dysfunction” (Bioorg Med Chem Lett, 2004).

Tests used:
[1] = Relative inhibition of bovine heart PDE1 and human platelet PDE5
[2] = Relative inhibition of bovine retina PDE6 and human platelet PDE 5
[3] = Relative inhibition of rat kidney PDE2 and human platelet PDE 5
[4] = target: cGMP-specific 3',5'-cyclic phosphodiesterase (Homo sapiens, UniProt O76074); assay: Inhibition of phosphodiesterase 5 from human platelets
[5] = Relative inhibition of rat kidney PDE4 and human platelet PDE 5
Phosphodiesterase 6 = assay: Inhibition of phosphodiesterase 6; type: protein assay
[6] = target: cGMP-dependent 3',5'-cyclic phosphodiesterase (Rattus norvegicus) (UniProt Q01062); assay: Inhibition of phosphodiesterase 2
Sequence of cGMP-dependent 3',5'-cyclic phosphodiesterase (Rattus norvegicus) (Q01062 whole entry, looked up): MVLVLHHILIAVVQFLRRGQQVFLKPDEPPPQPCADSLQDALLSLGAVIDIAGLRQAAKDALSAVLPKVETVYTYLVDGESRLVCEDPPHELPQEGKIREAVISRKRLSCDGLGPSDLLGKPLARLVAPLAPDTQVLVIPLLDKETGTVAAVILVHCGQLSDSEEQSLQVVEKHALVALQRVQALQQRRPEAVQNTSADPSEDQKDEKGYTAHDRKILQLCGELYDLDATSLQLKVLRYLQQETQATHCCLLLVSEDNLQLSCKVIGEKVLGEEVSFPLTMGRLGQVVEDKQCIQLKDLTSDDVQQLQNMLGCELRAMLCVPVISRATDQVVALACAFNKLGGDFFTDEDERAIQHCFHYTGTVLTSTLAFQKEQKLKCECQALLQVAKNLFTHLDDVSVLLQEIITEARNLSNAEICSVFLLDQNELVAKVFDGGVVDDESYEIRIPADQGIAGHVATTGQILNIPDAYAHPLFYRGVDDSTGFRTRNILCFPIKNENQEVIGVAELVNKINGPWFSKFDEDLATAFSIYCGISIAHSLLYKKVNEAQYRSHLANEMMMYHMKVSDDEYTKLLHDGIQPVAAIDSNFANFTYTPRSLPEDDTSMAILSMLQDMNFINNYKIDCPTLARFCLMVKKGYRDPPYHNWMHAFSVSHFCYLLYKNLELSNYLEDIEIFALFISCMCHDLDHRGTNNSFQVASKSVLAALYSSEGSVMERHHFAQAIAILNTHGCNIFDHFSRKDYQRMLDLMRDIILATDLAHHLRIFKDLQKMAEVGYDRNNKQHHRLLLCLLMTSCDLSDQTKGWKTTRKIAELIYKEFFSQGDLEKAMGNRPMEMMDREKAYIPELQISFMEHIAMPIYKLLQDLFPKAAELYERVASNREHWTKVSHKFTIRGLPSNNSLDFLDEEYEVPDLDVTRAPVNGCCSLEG

[7] = Inhibition of phosphodiesterase 4
Phosphodiesterase 3 = Phosphodiesterase 3 (Homo sapiens, UniProt Q14432+Q13370); assay: Inhibitory activity of compound against phosphodiesterase 3 was tested; type: protein assay
Phosphodiesterase 1 = Phosphodiesterase 1 (Bos taurus, UniProt Q01061+P14100); assay: Inhibition of phosphodiesterase 1 of bovine heart; type: protein assay

Structure (SMILES)	Selectivity ratio [1]	Selectivity ratio [2]	Selectivity ratio [3]	IC50 [4]	Selectivity ratio [5]	IC50 (Phosphodiesterase 6)	IC50 [6]	IC50 [7]	IC50 (Phosphodiesterase 3)	IC50 (Phosphodiesterase 1)
CCOC(=O)c1cnc2cc(C(F)(F)F)ccc2c1NCc1ccc(OC)c(Cl)c1	> 310	125	> 310	160 nM	> 310	20000 nM	> 50000 nM	> 50000 nM	> 50000 nM	> 50000 nM
CCc1cc(C#N)cc2c(NCc3ccc(OC)c(Cl)c3)c(CO)cnc12	> 1e+06	7800	> 100000	0.05 nM						
COc1ccc(CNc2c(C(=O)NCc3ccccn3)cnc3ccc(C#N)cc23)cc1Cl	> 100000	64	> 100000	1.3 nM	3100					
CCc1cc(C#N)cc2c(NCc3ccc(OC)c(Cl)c3)c(C(=O)NCc3ccccn3)cnc12		82		0.55 nM	4500					
CCOC(=O)c1cnc2ccc(C#N)cc2c1NCc1ccc(OC)c(Cl)c1		15	> 100000		3800					
COc1ccc(CNc2c(CO)cnc3ccc(C#N)cc23)cc1Cl	> 100000	23	8600	0.48 nM	> 100000					

Continued, values first:

Selectivity ratio [1]	Selectivity ratio [2]	Selectivity ratio [3]	IC50 [4]	Selectivity ratio [5]	IC50 (Phosphodiesterase 6)	IC50 [6]	IC50 [7]	IC50 (Phosphodiesterase 3)	IC50 (Phosphodiesterase 1)	Structure (SMILES)
6400	29	> 100000	1.4 nM	3500						COc1ccc(CNc2ccnc3ccc(C#N)cc23)cc1Cl
	40			2200						CCc1cc(C#N)cc2c(NCc3ccc(OC)c(Cl)c3)ccnc12
> 680	75	> 680	73 nM	247						CCOC(=O)c1cnc2ccc(C(F)(F)F)cc2c1NCc1ccc(OC)c(Cl)c1
> 100000	110	> 100000	0.6 nM	> 100000						CCOC(=O)c1cnc2c(CC)cc(C#N)cc2c1NCc1ccc(OC)c(Cl)c1
